# According to US20240415920A1, “PEPTIDE HAVING ACTIVITY OF PREVENTING HAIR LOSS OR PROMOTING HAIR GROWTH, AND USE THEREOF” (CAREGEN CO., LTD., priority 2021, published 2024):
# Columns and labels:
# Type in all cases: cell-based, human
# [1] = test system: p-AKT; experiment: Western blotting of phosphorylated AKT in HHFDPC; settings: peptide 10 nM, 100 nM, 1 μM, 24 hours, FIG. 2
# Text: (§1) In the HHFDPC treated with the peptide of the present invention, changes in related factors that affect cell proliferation or differentiation were confirmed to determine whether the peptide of the present invention could promote proliferation and differentiation of HHFDPC by increasing them.
# (§2) First, phosphorylated forms of AKT and ERK, which act as signaling molecules related to the proliferation of HHFDPC, were confirmed through Western blotting. Specifically, HHFDPC as in [Experiment Example 1-1] above was seeded at 4λ10^5 cells/well in a 6-well culture plate, cultured in MSC complete medium (mesenchymal stem cell complete media) for 24 hours, and then the medium was replaced with serum free MSC complete medium and cultured for another 24 hours. Then, the HHFDPC was treated with the peptide of SEQ ID NO: 1 prepared in the Preparation Example at concentrations of 10 nM, 100 nM, and 1 μM, respectively, and cultured at 37° C. for 24 hours. As a positive control, minoxidil was treated at a concentration of 1 μM, and as a negative control, HHFDPC without any treatment was used. Then, Western blotting was performed to detect phosphorylated AKT and phosphorylated ERK. […] After washing again with 0.1% PBS-T (0.1% Tween-20 in PBS) three times for 15 minutes each, p-AKT and p-ERK were detected by treatment with ECL solution (GE Healthcare, USA).
# [2] = test system: Keratin 5; experiment: RT-PCR of Keratin 5 expression in HHORSC; settings: peptide 10 nM, 100 nM, 1 μM, 72 hours, FIG. 6
# Method: (§3) Using the peptide of the present invention consisting of the amino acid sequence of SEQ ID NO: 1 prepared according to Preparation Example above, it was confirmed whether it promotes the activity of outer root sheath cells, a type of cell that forms hair follicles.
# (§4) Specifically, HHORSC (human hair outer root sheath cell, Sciencell, USA) was seeded in a 6-well culture plate at 4×10^5 cells/well and then cultured in MSC complete medium (mesenchymal stem cell complete media) for 24 hours. Next, the medium was replaced with serum free MSC complete medium and cultured again for 24 hours. Then, the HHORSC was treated with the peptide of Preparation Example consisting of amino acid sequence of SEQ ID NO: 1 at concentrations of 10 nM, 100 nM, and 1 μM, respectively, and cultured at 37° C. for 72 hours. […] Then, CDNA was synthesized using a cDNA synthesis kit (enzynomics, Korea) by quantification using nano drop, and PCR was performed using primers for Ha3-II, Keratin 5, Keratin 14, and Keratin 19 (the base sequences of each primer are shown in Table 3 below) and PCR premix (enzynomics, Korea). Electrophoresis was performed on a 1.5% agarose gel, and the mRNAs of Ha3-II, Keratin 5, Keratin 14, and Keratin 19 were detected using a band analysis system (Bio-Rad gel image system).
# [3] = test system: β-catenin; experiment: Western blotting of β-catenin moved into the nucleus of HHFDPC; settings: peptide 10 nM, 100 nM, 1 μM, 24 hours, FIG. 3
# Method: In addition, in addition to p-AKT and p-ERK, in order to confirm the activation of β-catenin, which is known to affect cell proliferation and differentiation, whether β-catenin moved into the nucleus was confirmed through Western blotting. Specifically, the HHFDPC as in [Experiment Example 1-1] was seeded in a 6-well culture plate at an amount of 4λ10^5 cells/well, cultured in MSC complete medium (mesenchymal stem cell complete media) for 24 hours. Next, the medium was replaced with serum free MSC complete medium and cultured again for 24 hours. Then, the HHFDPC was treated with the peptide of SEQ ID NO: 1 prepared in the Preparation Example at concentrations of 10 nM, 100 nM, and 1 μM, respectively, and cultured at 37° C. for 24 hours. As a positive control, minoxidil was treated at a concentration of 1 μM, and as a negative control, HHFDPC without any treatment was used. After washing with PBS, proteins in the nucleus were isolated using a nuclear protein extraction kit (Thermo scientific, USA). After electrophoresis using a 10% SDS-PAGE gel, it was transferred to a PVDF membrane and blocked using 5% skim milk at room temperature for 30 minutes. […] After washing again with 0.1% PBS-T (0.1% Tween-20 in PBS) three times for 15 minutes each, β-catenin was detected by treatment with ECL solution (GE Healthcare, USA).
# [4] = test system: MSX2; experiment: RT-PCR of MSX2 expression in HHGMC; settings: peptide 10 nM, 100 nM, 1 μM, 72 hours, FIG. 7
# Method: as §3, with “promoted the expression of transcription factors related to” for “promotes”, “germinal matrix” for “outer root sheath”, “hair.” for “hair follicles.”
# Specifically, HHGMC (human hair germinal matrix cell, Sciencell, USA) was seeded in a 6-well culture plate at 4×10^5 cells/well and then cultured in MSC complete medium (mesenchymal stem cell complete media) for 24 hours. Next, the medium was replaced with serum free MSC complete medium and cultured again for 24 hours. Then, the HHGMC was treated with the peptide of SEQ ID NO: 1 prepared in the Preparation Example at concentrations of 10 nM, 100 nM, and 1 μM, respectively, and cultured at 37° C. for 72 hours. As a positive control, EGF was treated at a concentration of 50 nM, and as a negative control, HHGMC without any treatment was used. […] Next, cDNA was synthesized using a cDNA synthesis kit (enzynomics, Korea) by quantification using nano drop, and PCR was performed using primers for MSX2 consisting of base sequences according to Table 4 below and PCR premix (enzynomics, Korea). Electrophoresis was performed on a 1.5% agarose gel, and MSX2 mRNA was detected using a band analysis system (Bio-Rad gel image system).
# [5] = test system: p-ERK; experiment: Western blotting of phosphorylated ERK in HHFDPC; settings: peptide 10 nM, 100 nM, 1 μM, 24 hours, FIG. 2
# Text: as §1, §2
# [6] = test system: HHFDPC; experiment: Proliferation of dermal papilla cells (MTT, absorbance at 540 nm); settings: 72 hours, FIG. 1
# Method: While culturing human hair follicle dermal dermal papilla cells (HHFDPC), the absorbance was measured after treatment with the peptide of the present invention to confirm whether there was an effect of promoting the proliferation of the HHFDPC dermal papilla cells.
# Specifically, HHFDPC (Sciencell, USA) was seeded at 4λ10^3 cells/well in a 96-well culture plate, cultured in MSC complete medium stem (mesenchymal cell complete media, Sciencell, USA) for 24 hours, and then the medium was replaced with serum free MSC complete medium and cultured for another 24 hours. Then, the HHFDPC was treated with the peptide from Preparation Example consisting of amino acid sequence of SEQ ID NO: 1 at concentrations of 10 nM, 100 nM, and 1 μM, respectively, and cultured at 37° C. for 72 hours. As a positive control, minoxidil was treated at a concentration of 1 μM, and as a negative control, HHFDPC without any treatment was used. Then, 10 μl of 5 mg/mL MTT solution was added and cultured in a 37° C. CO2 incubator for 4 hours to stain the cells. After removing the medium, the cells were treated with 100 μl of DMSO and shaken for 10 minutes, and the number of HHFDPC cells was confirmed by measuring absorbance at a wavelength of 540 nm using a spectrophotometer.
# [7] = test system: Ha3-II; experiment: RT-PCR of Ha3-II expression in HHORSC; settings: peptide 10 nM, 100 nM, 1 μM, 72 hours, FIG. 6
# Method: as §3, §4
# [8] = test system: Keratin 14; experiment: RT-PCR of Keratin 14 expression in HHORSC; settings: peptide 10 nM, 100 nM, 1 μM, 72 hours, FIG. 6
# Method: as §3, §4
# [9] = test system: LEF-1; experiment: RT-PCR of LEF-1 expression in HHFDPC; settings: peptide 10 nM, 100 nM, 1 μM, 24 hours, FIG. 4
# Method: (§5) Furthermore, in order to determine whether the β-catenin moves to the nucleus and is s activated to affect cell proliferation and differentiation, whether the expression of LEF-1 and cyclin D1 (cyclin D1), which act as downstream factors, increases with β-catenin activation was confirmed through RT-PCR. Specifically, in the same manner as the previous Western blotting experiment, HHFDPC cells were cultured, treated with the peptides of the Preparation Example of the present invention at concentrations of 10 nM, 100 nM, and 1 μM, respectively, and cultured at 37° C. for 24 hours. After washing the cells with PBS, RNA was isolated by treating them with 300 […] of easy blue (intron, Korea). Then, cDNA was synthesized using a cDNA synthesis kit (enzynomics, Korea) by quantifying it with nano drop, and PCR was performed using primers for LEF-1 and cyclin D1 (base sequences of the primers are listed in Table 2) and PCR premix (enzynomics, Korea). Electrophoresis was performed on a 1.5% agarose gel, and then the mRNA of LEF-1 and cyclin D1 was detected using a band analysis system (Bio-Rad gel image system).
# [10] = test system: cyclin D1; experiment: RT-PCR of cyclin D1 expression in HHFDPC; settings: peptide 10 nM, 100 nM, 1 μM, 24 hours, FIG. 4
# Method: as §5
# [11] = test system: Keratin 19; experiment: RT-PCR of Keratin 19 expression in HHORSC; settings: peptide 10 nM, 100 nM, 1 μM, 72 hours, FIG. 6
# Method: as §3, §4
# [12] = test system: DKK-1 protein; experiment: Western blotting of DKK-1 protein in DHT-treated HHFDPC; settings: HHFDPC with DHT 100 nM, peptide 10 nM, 1 μM, 24 hours, FIG. 5
# Method: DKK-1 protein (dickkopf-related protein 1) is a hair loss-related protein known to be highly expressed in individuals with hair loss, especially male pattern hair loss, and its expression is known to be promoted by hormones such as DHT (Dihydrotestosterone). Accordingly, the expression of DKK-1 protein was induced by treating HHFDPC cells with DHT together with the peptide according to the Preparation Example of the present invention, and then the expression level of DKK-1 was measured through Western blotting to determine whether there was an effect of suppressing the expression of DKK-1 protein.
# Specifically, HHFDPC as in [Experiment Example 1-1] was seeded in a 6-well culture plate at 4×10^5 cells/well and then cultured in MSC complete medium (mesenchymal stem cell complete media) for 24 hours. Next, the medium was replaced with serum free MSC complete medium and cultured again for 24 hours. In addition, the HHFDPC was treated with the peptide of SEQ ID NO: 1 prepared in Preparation Example at concentrations of 10 nM, 100 nM, and 1 μM, respectively, and at this time, DHT, an expression inducer of DKK-1 protein, was simultaneously treated at a concentration of 100 nM and then cultured at 37° C. for 24 hours. […] After washing again with 0.1% PBS-T (0.1% Tween-20 in PBS) three times for 15 minutes each, DKK-1 protein was detected by treatment with ECL solution (GE Healthcare, USA).
sequence,measurement,setting,value
GCGLFVAAC [peptide of the present invention],phosphorylation of AKT (p-AKT) compared to the control group not treated with the peptide,[1],phosphorylation was found to be increased
same,Keratin 5 mRNA amount compared to the control group without treatment,[2],the amount of mRNA increased further
same,β-catenin migration to the nucleus compared to the control group not treated with the peptide,"[3]; HHFDPC nuclear protein, Western blotting",migration due to activation of β-catenin increased
same,concentration dependence of β-catenin activation,[3]; HHFDPC,further promoted depending on the concentration
same,MSX2 mRNA amount compared to the untreated control group,[4],the amount of mRNA increased further
same,phosphorylation of ERK (p-ERK) compared to the control group not treated with the peptide,[5],phosphorylation was found to be increased
same,absorbance (cell proliferation) compared to the untreated control group,"[6]; peptide 10 nM, 100 nM, 1 μM",the absorbance was measured to be higher
same,proliferation promotion effect compared to the positive control group (minoxidil 1 μM),[6]; peptide 1 μM,showed a better proliferation promotion effect than the positive control group
same,Ha3-II mRNA amount compared to the control group without treatment,[7],the amount of mRNA increased further
same,Keratin 14 mRNA amount compared to the control group without treatment,[8],the amount of mRNA increased further
same,LEF-1 mRNA amount compared to the control group without any treatment,[9],the amount of mRNA increased further
same,cyclin D1 mRNA amount compared to the control group without any treatment,[10],the amount of mRNA increased further
same,Keratin 19 mRNA amount compared to the control group without treatment,[11],the amount of mRNA increased further
same,concentration dependence of the DKK-1 expression level,[12],decreased depending on the concentration
same,amount of DKK-1 protein compared to the negative control group (DHT only),[12]; Western blotting,found to be reduced
